What was measured:
[1] = tested on: mouse myocytes (C2C12); assay: Glucose oxidase assay of glucose uptake capability of myocytes; assay type: cell-based; details: C2C12 cells, 0.1, 1 or 10 μg/ml, 2 hours; for relative glucose uptake capability of cells (glucose consumption) compared to the control group: BSA-DMEM medium containing 500 μg/ml glucose
Protocol: The differentiated mouse myocytes (C2C12, purchased from ATCC) and adipocytes (3T3-L1, purchased from ATCC) were cultivated in a Dulbecco's modified Eagle's medium (DMEM) containing 2% bovine serum albumin (BSA) but serum free for 16 hours respectively. Then, the cells were washed with Dulbecco's phosphate-buffered saline (D-PBS), and medium was replaced with a 0.2% BSA-DMEM medium containing 500 μg/ml glucose. The cells thus provided were used in the following experiments. C2C12 cells provided by [Preparation Examples] were divided into 5 groups and were respectively cultivated with the following mediums for 2 hours: • 1. Group I: a BSA-DMEM medium containing 500 μg/ml glucose. • 2. Group II: a BSA-DMEM medium containing 500 μg/ml glucose and 100 nM insulin. • 3. Group III: a BSA-DMEM medium containing 500 μg/ml glucose and 0.1 μg/ml Poria cocos epidermis extract provided by [Preparation Example A-2]. • 4. Group IV: a BSA-DMEM medium containing 500 μg/ml glucose and 1 μg/ml Poria cocos epidermis extract provided by [Preparation Example A-2]. • 5. Group V: a BSA-DMEM medium containing 500 μg/ml glucose and 10 μg/ml Poria cocos epidermis extract provided by [Preparation Example A-2]. Thereafter, the content of glucose in the medium of each group was determined by a glucose oxidase assay to measure the level of glucose consumption (representing the glucose uptake capability of cells) of each group. Finally, the results of the control group (i.e., cells being cultivated with the medium of Group I) was served as a basis to calculate the relative glucose uptake capabilities of other groups. C2C12 cells provided by [Preparation Examples] were divided into 8 groups and were respectively cultivated with the following mediums for 2 hours: • 1. Group i: a BSA-DMEM medium containing 500 μg/ml glucose. • 2. […] Then, the content of glucose in the medium of each group was determined by a glucose oxidase assay to measure the level of glucose consumption of each group (representing the glucose uptake capability of cells). […]

[2] = tested on: mouse adipocytes (3T3-L1); assay: Glucose oxidase assay of glucose uptake capability of adipocytes; assay type: cell-based; details: 2 hours; for relative glucose uptake capability of cells (glucose consumption) compared to the control group: 3T3-L1 cells, 0.1, 1 or 10 μg/ml, BSA-DMEM medium containing 500 μg/ml glucose
Protocol: The differentiated mouse myocytes (C2C12, purchased from ATCC) and adipocytes (3T3-L1, purchased from ATCC) were cultivated in a Dulbecco's modified Eagle's medium (DMEM) containing 2% bovine serum albumin (BSA) but serum free for 16 hours respectively. Then, the cells were washed with Dulbecco's phosphate-buffered saline (D-PBS), and medium was replaced with a 0.2% BSA-DMEM medium containing 500 μg/ml glucose. The cells thus provided were used in the following experiments. 3T3-L1 cells provided by [Preparation Examples] were divided into 5 groups and were respectively cultivated with the mediums of Groups I to V described in Example 1 (1-1) for 2 hours. Then, the content of glucose in the medium of each group were determined by a glucose oxidase assay to measure the level of glucose consumption of each group (representing the glucose uptake capability of cells). Finally, the results of the control group (i.e., cells being cultivated with the medium of Group I) was served as a basis to calculate the relative glucose uptake capabilities of other groups. 3T3-L1 cells provided by [Preparation Examples] were divided into 8 groups and were respectively cultivated with the mediums of Groups i to v as described in Example 2 (2-1) for 2 hours. Then, the content of glucose in the medium of each group was determined by a glucose oxidase assay to measure the level of glucose consumption of each group (representing the glucose uptake capability of cells). Finally, the results of the control group (i.e., cells being cultivated with the medium of Group i) was served as a basis to calculate the relative glucose uptake capabilities of other groups. FIG. 4A comprises the results of the control group, the positive control group (i.e., cells being cultivated with the medium of Group ii), and the groups being treated with poricoic acid A (i.e., cells being cultivated with the medium of Group iii, iv or v which contains poricoic acid A). FIG. 4B comprises the results of the control group, the positive control group, and the group being treated with poricoic acid B (i.e., cells being cultivated with the medium of Group iii, iv or v which contains poricoic acid B).

increment in glucose uptake capability compared to the control group, medium dosage group ([2]; 3T3-L1 cells, 1 μg/ml)	increment in glucose uptake capability compared to the control group, high dosage group ([2]; 3T3-L1 cells, 10 μg/ml)	SMILES	relative glucose uptake capability of cells (glucose consumption) compared to the control group [1]	glucose uptake capability compared to the positive control group ([1]; positive control 100 nM insulin)	relative glucose uptake capability of cells (glucose consumption) compared to the control group [2]
significant	significant	C=C(CC[C@@H](C(=O)O)[C@H]1[C@H](O)C[C@@]2(C)C3=CC[C@@H](C(=C)C)[C@](C)(CCC(=O)O)C3=CC[C@]12C)C(C)C [poricoic acid A, Poricoic acid A]	significantly increased	equivalent to that of the positive control group	exhibited an increment in the glucose uptake capabilities
		C=C(C)[C@@H]1CC=C2C(=CC[C@]3(C)[C@@H]([C@@H](CCC=C(C)C)C(=O)O)[C@H](O)C[C@@]23C)[C@@]1(C)CCC(=O)O [poricoic acid B, Poricoic acid B]	significantly increased		significantly increased

Source: patent US20170326188A1, “USES OF PORIA COCOS EPIDERMIS EXTRACT, PORICOIC ACID A, AND PORICOIC ACID B IN REGULATING BLOOD GLUCOSE LEVEL” (SINPHAR PHARMACEUTICAL CO., LTD., priority 2016, published 2017)
